Where two headings read alike, the source gives them in different places. Numbered stars: 1 amine (or outer) side, 2 acyl side, 3 side chain; on linkers, the order of the positions; unused ones are H or OH. Square brackets hold non-standard residues; d marks the D form. Peptide text beside a SMILES is read from it. * marks the point of attachment. Trp(βS-Me,7-OMe) = COc1cccc2c([C@H](C)[C@H](N)C(=O)O)c[nH]c12; Ala(indazol-1-yl) = N[C@@H](Cn1ncc2ccccc21)C(=O)O; Trp(7-CN) = N#Cc1cccc2c(C[C@H](N)C(=O)O)c[nH]c12; Trp(7-Cl) = N[C@@H](Cc1c[nH]c2c(Cl)cccc12)C(=O)O; Phe(3-CONH2) = NC(=O)c1cccc(C[C@H](N)C(=O)O)c1; Phe(4-CONH2) = NC(=O)c1ccc(C[C@H](N)C(=O)O)cc1; Phe(4-COOH) = N[C@@H](Cc1ccc(C(=O)O)cc1)C(=O)O; 4Pal(3S-Me) = C[C@@H](c1ccncc1)[C@H](N)C(=O)O; X9 = CN(C)[C@@H]1C[C@H](C(=O)[*:2])N([*:1])C1; Pip(5R-OH) = O=C(O)[C@@H]1CC[C@@H](O)CN1; X1 = O=C([C@@H]1CC[C@H](N[*:1])C1)[*:2]; Pip(4-aza) = O=C(O)[C@@H]1CNCCN1; 4Pal = N[C@@H](Cc1ccncc1)C(=O)O; Abu(4-CN) = N#CCC[C@H](N)C(=O)O; NMeE = CN[C@@H](CCC(=O)O)C(=O)O; dHyp = O=C(O)[C@H]1C[C@H](O)CN1; Ahp(2) = CCCCC[C@H](N)C(=O)O; αMeS = C[C@](N)(CO)C(=O)O; Carboxymethyl = O=C(O)C*; Nle = CCCC[C@H](N)C(=O)O; Sar = CNCC(=O)O
Legend:
human TNFR2 ECD protein = molecular target: T1, human TNFR2 ECD protein (Homo sapiens, UniProt P20333); assay: SPR off-target binding (selectivity) to human TNFR2 ECD
T1 construct: HRV 3C protease cleavage site (C); 6His (C, cleaved yes); made in house; host or cells: Sf21 insect cells (baculovirus), secreted
T1 sequence (P20333 23-257): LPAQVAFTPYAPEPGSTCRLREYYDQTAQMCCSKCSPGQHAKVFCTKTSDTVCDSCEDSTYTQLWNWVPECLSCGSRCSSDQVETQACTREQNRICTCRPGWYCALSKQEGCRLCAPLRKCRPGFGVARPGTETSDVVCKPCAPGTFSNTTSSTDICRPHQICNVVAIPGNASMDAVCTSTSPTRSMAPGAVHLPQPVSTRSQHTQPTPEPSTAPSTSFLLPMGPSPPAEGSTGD
How it was run: (§1)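 Biotinylated avi-tagged human TNFR1 or TNFR2 ECD, expressed in Sf21 insect cells, captured on streptavidin SPR chip; peptide analytes run in 10 mM HEPES pH 7.4, 150 mM NaCl, 3 mM EDTA, 0.05% P20, 2% DMSO. kon and koff measured, affinity KA calculated.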

[1] = molecular target: T2, human TNFR1 extracellular domain (ECD) protein (Homo sapiens, UniProt P19438); assay: SPR binding affinity to captured human TNFR1 ECD
T2 construct: HRV 3C protease cleavage site (C); 6His (C, cleaved yes); made in house; host or cells: Sf21 insect cells (baculovirus), secreted
T2 sequence (P19438 30-211): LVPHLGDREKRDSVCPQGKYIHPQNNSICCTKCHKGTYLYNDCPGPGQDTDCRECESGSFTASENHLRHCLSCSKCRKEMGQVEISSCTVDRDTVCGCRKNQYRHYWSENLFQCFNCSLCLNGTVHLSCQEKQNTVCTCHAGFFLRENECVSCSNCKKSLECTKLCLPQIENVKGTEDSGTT
How it was run: as §1

Row | SMILES | Kd (human TNFR2 ECD protein) [nM] | Kd [1] [nM] | Kd (human TNFR2 ECD protein; biotinylated human TNFR2 ECD on streptavidin chip, read-out: SPR hTNFR2 KD) [nM] | Kd ([1]; biotinylated human TNFR1 ECD on streptavidin chip, from kon and koff, read-out: SPR hTNFR1 KD) [nM]
1 | CCCC[C@@H]1NC(=O)[C@@H]2CC[C@@H](C2)NC(=O)[C@H]([C@@H](C)c2c[nH]c3c(OC)cccc23)NC(=O)CN(C)C(=O)[C@H](Cc2ccc(O)cc2)NC(=O)[C@H](Cc2ccc(C(N)=O)cc2)NC(=O)[C@](C)(CO)NC(=O)[C@H](Cc2c[nH]c3c(Cl)cccc23)NC(=O)[C@H](Cc2ccncc2)NC(=O)[C@H](CC(N)=O)NC(=O)[C@H](CCC(=O)O)N(C)C(=O)[C@H](Cn2ncc3ccccc32)NC(=O)[C@@H]2CC[C@@H](O)CN2C(=O)[C@H](Cc2ccncc2)NC1=O [SEQ ID NO. 74] (cyclo([4Pal][Trp(7-Cl)][αMeS][Phe(4-CONH2)]Y[Sar][Trp(βS-Me,7-OMe)][X1][Nle][4Pal][Pip(5R-OH)][Ala(indazol-1-yl)][NMeE]N)) | > 1000 | 0.12 |  | 
2 | CCCCC[C@@H]1NC(=O)[C@@H]2CC[C@@H](C2)NC(=O)[C@H]([C@@H](C)c2c[nH]c3c(OC)cccc23)NC(=O)CN(C)C(=O)[C@H](Cc2ccc(C(N)=O)cc2)NC(=O)[C@H](Cc2ccc(C(N)=O)cc2)NC(=O)[C@](C)(CO)NC(=O)[C@H](Cc2c[nH]c3c(C#N)cccc23)NC(=O)[C@H](Cc2ccc(C(=O)O)cc2)NC(=O)[C@H](CC(N)=O)NC(=O)[C@H]2C[C@H](O)CN2C(=O)[C@H](Cc2c[nH]c3ccccc23)NC(=O)[C@H](CCC#N)NC(=O)[C@H]([C@@H](C)c2ccncc2)NC1=O [SEQ ID NO. 79] (cyclo([Ahp(2)][4Pal(3S-Me)][Abu(4-CN)]W[dHyp]N[Phe(4-COOH)][Trp(7-CN)][αMeS][Phe(4-CONH2)][Phe(4-CONH2)][Sar][Trp(βS-Me,7-OMe)][X1])) | > 1000 | 0.05 |  | 
3 | CCCC[C@@H]1NC(=O)[C@@H]2CC[C@@H](C2)NC(=O)[C@H]([C@@H](C)c2c[nH]c3c(OC)cccc23)NC(=O)CN(C)C(=O)[C@H](Cc2ccc(O)cc2)NC(=O)[C@H](Cc2ccc(OCC(=O)O)cc2)NC(=O)[C@](C)(CO)NC(=O)[C@H](Cc2c[nH]c3c(Cl)cccc23)NC(=O)[C@H](Cc2ccncc2)NC(=O)[C@H](CC(N)=O)NC(=O)[C@H](CCC(=O)O)N(C)C(=O)[C@H](Cc2c[nH]c3ccccc23)NC(=O)[C@@H]2CNCCN2C(=O)[C@H](Cc2ccncc2)NC1=O [SEQ ID NO. 80] (cyclo([4Pal][Trp(7-Cl)][αMeS]Y(Carboxymethyl)Y[Sar][Trp(βS-Me,7-OMe)][X1][Nle][4Pal][Pip(4-aza)]W[NMeE]N)) | > 1000 | 0.33 |  | 
4 | CCCC[C@@H]1NC(=O)[C@@H]2CC[C@@H](C2)NC(=O)[C@H]([C@@H](C)c2c[nH]c3c(OC)cccc23)NC(=O)CN(C)C(=O)[C@H](Cc2ccc(C(=O)O)cc2)NC(=O)[C@H](Cc2ccc(C(N)=O)cc2)NC(=O)[C@](C)(CO)NC(=O)[C@H](Cc2c[nH]c3c(Cl)cccc23)NC(=O)[C@H](Cc2ccncc2)NC(=O)[C@H](CC(N)=O)NC(=O)[C@H]2C[C@H](O)CN2C(=O)[C@H](Cc2c[nH]c3ccccc23)NC(=O)[C@@H]2CNCCN2C(=O)[C@H](Cc2ccncc2)NC1=O [SEQ ID NO. 83] (cyclo([4Pal][Trp(7-Cl)][αMeS][Phe(4-CONH2)][Phe(4-COOH)][Sar][Trp(βS-Me,7-OMe)][X1][Nle][4Pal][Pip(4-aza)]W[dHyp]N)) |  |  | > 1000 | 0.09
5 | CCCCC[C@@H]1NC(=O)[C@@H]2CC[C@@H](C2)NC(=O)[C@H]([C@@H](C)c2c[nH]c3c(OC)cccc23)NC(=O)CN(C)C(=O)[C@H](Cc2cccc(C(N)=O)c2)NC(=O)[C@H](Cc2ccc(C(N)=O)cc2)NC(=O)[C@](C)(CO)NC(=O)[C@H](Cc2c[nH]c3c(C#N)cccc23)NC(=O)[C@H](Cc2ccc(C(=O)O)cc2)NC(=O)[C@H](CC(N)=O)NC(=O)[C@H]2C[C@@H](N(C)C)CN2C(=O)[C@H](Cc2c[nH]c3ccccc23)NC(=O)[C@@H]2CC[C@@H](O)CN2C(=O)[C@H](Cc2ccncc2)NC1=O [SEQ ID NO. 84] (cyclo([4Pal][Pip(5R-OH)]W[X9]N[Phe(4-COOH)][Trp(7-CN)][αMeS][Phe(4-CONH2)][Phe(3-CONH2)][Sar][Trp(βS-Me,7-OMe)][X1][Ahp(2)])) | > 1000 | 0.02 |  | 

From patent US20240287138A1, “CYCLIC PEPTIDES FOR INHIBITING TNF RECEPTOR 1 ACTIVITY” (Merck Sharp & Dohme LLC, priority 2023, published 2024)
